Measured values: PubChem BioAssay AID1963856 (Molecular Pharmacology Branch, DTP, NCI, 2024)
pIC50: −log10 of the molar value.

Tested on: LG0567-F671-PDC KRAS tumor spheroid viability
Assay: Anticancer human tumor LG0567-F671-PDC patient-derived lung adenocarcinoma cell line growth inhibition [KRAS2]
Details: spheroids with HUVEC and MSC; for pIC50: curve of first compound; for viability, T/C: stronger effect = lower value
Outline: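 Combination screen of spheroid viability in tumor-cell co-cultures with endothelial (HUVEC) and mesenchymal stem cell stroma. Each agent was tested in half-log dilutions, topping at clinical Cmax or at 10 microM without a known Cmax.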

[1] = second compound 0.1 µM, first compound 0.0316 µM
[2] = second compound 0.1 µM, first compound 0.1 µM
[3] = second compound 0.316 µM, first compound 0.0316 µM
[4] = second compound 0.316 µM, first compound 0.1 µM
[5] = second compound 1 µM, first compound 0.0316 µM
[6] = second compound 1 µM, first compound 0.1 µM
[7] = second compound 3.16 µM, first compound 0.0316 µM
[8] = second compound 3.16 µM, first compound 0.1 µM
[9] = second compound 10 µM, first compound 0.0316 µM
[10] = second compound 10 µM, first compound 0.1 µM
[11] = second compound 0.1 µM, first compound 0.316 µM
[12] = second compound 0.1 µM, first compound 1 µM
[13] = second compound 0.1 µM, first compound 3.16 µM
[14] = second compound 0.1 µM, first compound 10 µM
[15] = second compound 0.316 µM, first compound 0.316 µM
[16] = second compound 0.316 µM, first compound 1 µM
[17] = second compound 0.316 µM, first compound 3.16 µM
[18] = second compound 0.316 µM, first compound 10 µM
[19] = second compound 1 µM, first compound 0.316 µM
[20] = second compound 1 µM, first compound 1 µM
[21] = second compound 1 µM, first compound 3.16 µM
[22] = second compound 1 µM, first compound 10 µM
[23] = second compound 3.16 µM, first compound 0.316 µM
[24] = second compound 3.16 µM, first compound 1 µM
[25] = second compound 3.16 µM, first compound 3.16 µM
[26] = second compound 3.16 µM, first compound 10 µM
[27] = second compound 10 µM, first compound 0.316 µM
[28] = second compound 10 µM, first compound 1 µM
[29] = second compound 10 µM, first compound 3.16 µM
[30] = second compound 10 µM, first compound 10 µM
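Also: drug exposure lasted seven days after spheroids formed for three days.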
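For viability, T/C in this document: 100% = DMSO vehicle control viability.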

SMILES	pIC50 (second compound 0.1 µM)	pIC50 (second compound 0.316 µM)	pIC50 (second compound 1 µM)	pIC50 (second compound 3.16 µM)	pIC50 (second compound 10 µM)	viability, T/C [1] [%]	viability, T/C [2] [%]	viability, T/C [3] [%]	viability, T/C [4] [%]	viability, T/C [5] [%]	viability, T/C [6] [%]	viability, T/C [7] [%]	viability, T/C [8] [%]	viability, T/C [9] [%]	viability, T/C [10] [%]	viability, T/C [11] [%]	viability, T/C [12] [%]	viability, T/C [13] [%]	viability, T/C [14] [%]	viability, T/C [15] [%]	also measured
CN(C)C/C=C/C(=O)Nc1cc2c(Nc3ccc(F)c(Cl)c3)ncnc2cc1O[C@H]1CCOC1 + COc1cc2nc(C)nc(NC(C)c3cc(N)cc(C(F)(F)F)c3)c2cc1OC1CCOC1	7.52	8.37	7.95	> 9.50	> 9.50	51.6	48.2	45.1	46.2	39.8	49.3	29.8	32.1	17.8	22.4						viability, T/C (second compound 0.1 µM, first compound 0.000316 µM): 88.5%; viability, T/C (second compound 0.1 µM, first compound 0.001 µM): 68.1%; viability, T/C (second compound 0.1 µM, first compound 0.00316 µM): 56.5%; viability, T/C (second compound 0.1 µM, first compound 0.01 µM): 51.2%; viability, T/C (second compound 0.316 µM, first compound 0.000316 µM): 69.5%; viability, T/C (second compound 0.316 µM, first compound 0.001 µM): 60.9%; viability, T/C (second compound 0.316 µM, first compound 0.00316 µM): 54.4%; viability, T/C (second compound 0.316 µM, first compound 0.01 µM): 40.8%; viability, T/C (second compound 1 µM, first compound 0.000316 µM): 85.9%; viability, T/C (second compound 1 µM, first compound 0.001 µM): 66.4%; viability, T/C (second compound 1 µM, first compound 0.00316 µM): 57.5%; viability, T/C (second compound 1 µM, first compound 0.01 µM): 53.9%; viability, T/C (second compound 3.16 µM, first compound 0.000316 µM): 45.9%; viability, T/C (second compound 3.16 µM, first compound 0.001 µM): 43.8%; viability, T/C (second compound 3.16 µM, first compound 0.00316 µM): 36.4%; viability, T/C (second compound 3.16 µM, first compound 0.01 µM): 32.1%; viability, T/C (second compound 10 µM, first compound 0.000316 µM): 39.6%; viability, T/C (second compound 10 µM, first compound 0.001 µM): 35.5%; viability, T/C (second compound 10 µM, first compound 0.00316 µM): 27.8%; viability, T/C (second compound 10 µM, first compound 0.01 µM): 24.4%
COc1cc2nccc(Oc3ccc(NC(=O)C4(C(=O)Nc5ccc(F)cc5)CC4)cc3)c2cc1OC + C=CC(=O)N1CCN(c2nc(=O)n(-c3c(C)ccnc3C(C)C)c3nc(-c4c(O)cccc4F)c(F)cc23)C(C)C1	> 7.50	> 7.50	> 7.50	> 7.50	> 7.50	24.2	20.6	21.5	19.1	22.3	23.9	21.8	23.4	18.3	18.4	21.3	18.9	10.8	48.9	17.1	viability, T/C [16]: 14.9%; viability, T/C [17]: 9.77%; viability, T/C [18]: 51.1%; viability, T/C [19]: 17.6%; viability, T/C [20]: 17.3%; viability, T/C [21]: 9.01%; viability, T/C [22]: 55%; viability, T/C [23]: 20.3%; viability, T/C [24]: 16.8%; viability, T/C [25]: 8.81%; viability, T/C [26]: 50.4%; viability, T/C [27]: 17.6%; viability, T/C [28]: 13.7%; viability, T/C [29]: 10.7%; viability, T/C [30]: 29.2%
CC(C)n1nc(-c2ccc3oc(N)nc3c2)c2c(N)ncnc21																					viability, T/C (compound 0.000316 µM): 98.5% [middle of 5 runs]; viability, T/C (compound 0.001 µM): 89.3% [middle of 5 runs]
CC(C)NCC(C(=O)N1CCN(c2ncnc3c2C(C)CC3O)CC1)c1ccc(Cl)cc1 (configuration not stated) + C=CC(=O)N1CCN(c2nc(=O)n(-c3c(C)ccnc3C(C)C)c3nc(-c4c(O)cccc4F)c(F)cc23)C(C)C1	> 7.50	> 7.50	> 7.50	> 7.50	> 7.50	31.4	25.9	26.5	28.5	30.6	26.5	29.9	21.2	25.8	17	19.8	14	14.5	12.8	20.9	viability, T/C [16]: 13.7%; viability, T/C [17]: 13.7%; viability, T/C [18]: 10.6%; viability, T/C [19]: 17%; viability, T/C [20]: 15.9%; viability, T/C [21]: 14.4%; viability, T/C [22]: 12.6%; viability, T/C [23]: 19.9%; viability, T/C [24]: 19.1%; viability, T/C [25]: 13.3%; viability, T/C [26]: 11.3%; viability, T/C [27]: 15.6%; viability, T/C [28]: 13.3%; viability, T/C [29]: 15%; viability, T/C [30]: 11%
